Experimental data as given in US20070275994A1, “Novel Antinfective Compounds” (priority 2003, published 2007).
≈ marks a conversion by molar mass, not a printed value.

How the values were obtained:
[1] = test system: Staphylococcus aureus ATCC 29213; assay: MIC by microbroth dilution, Staphylococcus aureus ATCC 29213; format: cell-based; conditions: ATCC29213, Mueller Hinton Broth, 37° C., 16-18 hrs, read-out: MIC, in vitro activity, Sa4
Procedure: (§1) The antibacterial spectrum and potency of a particular compound may be determined in a standard test system.
(§2) The minimum inhibitory concentrations (MIC's) of the compounds for the microorganisms listed in Table A were determined by preparing working solution for each compound of concentration of 128 μg/ml after dissolving it in DMSO. […] 30 μg/ml of Standard suspension of each organism which was prepared with turbidity equivalent to the 1:10 diluted 0.5 McFarland standard with density 10^7 CFU/ml, was added to each well to get approximately a density of 10^5 CFU/ml. These 96-well Tissue culture plate containing the test samples and positive and negative controls, were incubated at 37° C. for 16-18 hrs. The wells were visually inspected for growth and were also read at 630 nm by Automated Microplate Reader [(EL800) Trinity Biotech.] and the MIC's were recorded as the lowest concentration of drug which inhibits the growth of bacteria.
(§3) • Bp: Bacillus pumilus MTCC 1607 • S.e.: Staphylococcus epidermidis MTCC 155 • S.p.: Staphylococcus pyogenes MTCC 442 • S.a.1: Staphylococcus aureus MTCC 96 • S.a.2: Staphylococcus aureus ATCC 14154 • S.a.3: Staphylococcus aureus ATCC 25923 • S.a.4: Staphylococcus aureus ATCC 29213 • E.f.1: Enterococcus faecalis MTCC 439 • E.f.2: Enterococcus faecalis ATCC 14506 • K.0p.: Klebsiella pneumoniae ATCC 10031

[2] = test system: Pseudomonas aeruginosa ATCC 27853; assay: MIC by microbroth dilution, Pseudomonas aeruginosa ATCC 27853; format: cell-based; conditions: 37° C., 16-18 hrs; for MIC: ATCC27853, Mueller Hinton Broth, read-out: MIC, in vitro activity, Pa; for MIC, in vitro activity, Pa: Mueller Hinton Broth
Procedure: as §1, §2
P.a.: Pseudomonas aeruginosa ATCC 27853

[3] = test system: Enterococcus faecalis ATCC 14506; assay: MIC by microbroth dilution, Enterococcus faecalis ATCC 14506; format: cell-based; conditions: ATCC14506, Mueller Hinton Broth, 37° C., 16-18 hrs, read-out: MIC, in vitro activity, Ef2
Procedure: as §1, §2, §3

[4] = test system: Enterococcus faecalis MTCC 439; assay: MIC by microbroth dilution, Enterococcus faecalis MTCC 439; format: cell-based; conditions: 37° C., 16-18 hrs; for MIC: MTCC439, Mueller Hinton Broth, read-out: MIC, in vitro activity, Ef1
Procedure: as §1, §2, §3

[5] = test system: Staphylococcus aureus ATCC 25923; assay: MIC by microbroth dilution, Staphylococcus aureus ATCC 25923; format: cell-based; conditions: ATCC25923, Mueller Hinton Broth, 37° C., 16-18 hrs, read-out: MIC, in vitro activity, Sa3
Procedure: as §1, §2, §3

[6] = test system: Staphylococcus aureus MTCC 96; assay: MIC by microbroth dilution, Staphylococcus aureus MTCC 96; format: cell-based; conditions: 37° C., 16-18 hrs; for MIC: MTCC96, Mueller Hinton Broth, read-out: MIC, in vitro activity, Sa1; for MIC, in vitro activity, Sa1: Mueller Hinton Broth
Procedure: as §1, §2, §3

[7] = test system: Bacillus pumilus MTCC 1607; assay: MIC by microbroth dilution, Bacillus pumilus MTCC 1607; format: cell-based; conditions: 37° C., 16-18 hrs; for MIC: MTCC1607, Mueller Hinton Broth, read-out: MIC, in vitro activity, Bp; for MIC, in vitro activity, Bp: Mueller Hinton Broth
Procedure: as §1, §2, §3

[8] = test system: Staphylococcus pyogenes MTCC 442; assay: MIC by microbroth dilution, Staphylococcus pyogenes MTCC 442; format: cell-based; conditions: MTCC442, Mueller Hinton Broth, 37° C., 16-18 hrs, read-out: MIC, in vitro activity, Sp
Procedure: as §1, §2, §3

[9] = test system: Staphylococcus epidermidis MTCC 155; assay: MIC by microbroth dilution, Staphylococcus epidermidis MTCC 155; format: cell-based; conditions: MTCC155, Mueller Hinton Broth, 37° C., 16-18 hrs, read-out: MIC, in vitro activity, Se
Procedure: as §1, §2, §3

[10] = test system: Staphylococcus aureus ATCC 14154; assay: MIC by microbroth dilution, Staphylococcus aureus ATCC 14154; format: cell-based; conditions: ATCC14154, Mueller Hinton Broth, 37° C., 16-18 hrs, read-out: MIC, in vitro activity, Sa2
Procedure: as §1, §2, §3

SMILES | MIC [1] [µg/mL] | MIC [2] [µg/mL] | MIC [3] [µg/mL] | MIC [4] [µg/mL] | MIC [5] [µg/mL] | MIC [6] [µg/mL] | MIC [7] [µg/mL] | MIC [8] [µg/mL] | MIC [9] [µg/mL] | MIC [10] [µg/mL] | melting point [°C] | MIC, in vitro activity, Pa [2] [µg/mL] | MIC, in vitro activity, Sa1 [6] [µg/mL] | MIC, in vitro activity, Bp [7] | MIC, in vitro activity, Ef1 ([4]; Mueller Hinton Broth) [µg/mL]
O=C(O)c1cn(C2CC2)c2cc(N3CCNCC3)c(F)cc2c1=O [Ciprofloxacin, ciprofloxacin, reference compound] | 0.25 (≈ 0.754 µM) | 0.5 (≈ 1.51 µM) | 0.25 (≈ 0.754 µM) | 0.25 (≈ 0.754 µM) | 0.5 (≈ 1.51 µM) | 0.25 (≈ 0.754 µM) | < 0.12 | 0.5 (≈ 1.51 µM) | 0.25 (≈ 0.754 µM) | 0.5 (≈ 1.51 µM) |  |  |  |  | 
O=C(O)c1cn(C2CC2)c2cc(N3CCc4sccc4C3)c(F)cc2c1=O [Compound 14, 1-Cyclopropyl-7-(6,7-dihydro-4H-thieno[3,2-c]pyridin-5-yl)-6-fluoro-4-oxo-1,4-dihydro-quinoline-3-carboxylic acid] | 0.5 (≈ 1.3 µM) |  |  |  | 0.5 (≈ 1.3 µM) | 0.25 (≈ 0.65 µM) | ≤ 0.12 |  | 0.25 (≈ 0.65 µM) | 0.25 (≈ 0.65 µM) |  |  |  |  | 
COc1c(N2CCc3sccc3C2)c(F)c([N+](=O)[O-])c2c(=O)c(C(=O)O)cn(C3CC3)c12 [Compound 15, 1-Cyclopropyl-7-(6,7-dihydro-4H-thieno[3,2-c]pyridin-5-yl)-6-fluoro-8-methoxy-5-nitro-4-oxo-1,4-dihydro-quinoline-3-carboxylic acid] |  |  |  |  |  | 1 (≈ 2.18 µM) | 0.25 (≈ 0.544 µM) |  |  |  |  |  |  |  | 
O=C(O)c1cn(C2CC2)c2c(F)c(N3CCc4sccc4C3)c(F)c(F)c2c1=O [Compound 16, 1-Cyclopropyl-7-(6,7-dihydro-4H-thieno[3,2-c]pyridin-5-yl)-5,6,8-fluoro-4-oxo-1,4-dihydro-quinoline-3-carboxylic acid] |  |  |  |  |  |  |  |  |  |  |  | >64 | 0.25 (≈ 0.595 µM) | 0.25 µg/mL (≈ 0.595 µM) | 
COc1c(N2CCc3sc([N+](=O)[O-])cc3C2)c(F)cc2c(=O)c(C(=O)O)cn(C3CC3)c12 [Compound 19, 1-Cyclopropyl-6-fluoro-8-methoxy-7-(2-nitro-6,7-dihydro-4H-thieno[3,2-c]pyridin-5-yl)-4-oxo-1,4-dihydro-quinoline-3-carboxylic acid] |  | 1 (≈ 2.18 µM) | 0.25 (≈ 0.544 µM) | ≤ 0.12 |  | 0.25 (≈ 0.544 µM) | ≤ 0.12 | ≤ 0.12 | ≤ 0.12 |  |  |  |  |  | 
COc1c(N2CCc3sc(CO)cc3C2)c(F)cc2c(=O)c(C(=O)O)cn(C3CC3)c12 [Compound 21, 1-Cyclopropyl-6-fluoro-7-(2-hydroxymethyl-6,7-dihydro-4H-thieno[3,2-c]pyridin-5-yl)-8-methoxy-4-oxo-1,4-dihydro-quinoline-3-carboxylic acid] |  | 16 (≈ 36 µM) |  | 0.25 (≈ 0.562 µM) |  | 0.25 (≈ 0.562 µM) | ≤ 0.12 |  | 0.25 (≈ 0.562 µM) |  |  |  |  |  | 
COc1c(N2CCc3sc(C(=O)O)cc3C2)c(F)cc2c(=O)c(C(=O)O)cn(C3CC3)c12 [Compound 22, 7-(2-carboxy-6,7-dihydro-4H-thieno[3,2-c]pyridin-5-yl)-1-cyclopropyl-6-fluoro-8-methoxy-4-oxo-1,4-dihydro-quinoline-3-carboxylic acid] |  | > 16 |  | 8 (≈ 17.4 µM) |  | 4 (≈ 8.72 µM) | 0.5 (≈ 1.09 µM) |  |  |  |  |  |  |  | 
COc1c(N2CCc3occc3C2C)c(F)cc2c(=O)c(C(=O)O)cn(C3CC3)c12 (stereo not drawn) [Compound 23, 1-Cyclopropyl-6-fluoro-8-methoxy-7-(4-methyl-6,7-dihydro-4H-fluoro[3,2-c]pyridin-5-yl)-4-oxo-1,4-dihydro-quinoline-3-carboxylic acid] |  |  |  |  |  |  |  |  |  |  |  | >16 | 8 (≈ 19.4 µM) | ≦0.12 μg/ml | 2 (≈ 4.85 µM)

Second part, led by results:

MIC [1] [µg/mL] | MIC [2] [µg/mL] | MIC [3] [µg/mL] | MIC [4] [µg/mL] | MIC [5] [µg/mL] | MIC [6] [µg/mL] | MIC [7] [µg/mL] | MIC [8] [µg/mL] | MIC [9] [µg/mL] | MIC [10] [µg/mL] | melting point [°C] | SMILES | MIC, in vitro activity, Pa [2] [µg/mL] | MIC, in vitro activity, Sa1 [6] [µg/mL] | MIC, in vitro activity, Bp [7] | MIC, in vitro activity, Ef1 ([4]; Mueller Hinton Broth) [µg/mL]
0.25 (≈ 0.603 µM) | 16 (≈ 38.6 µM) | 0.25 (≈ 0.603 µM) | ≤ 0.12 | 0.5 (≈ 1.21 µM) | ≤ 0.12 | ≤ 0.12 | ≤ 0.12 | ≤ 0.12 | ≤ 0.12 | 173 to 175 | COc1c(N2CCc3sccc3C2)c(F)cc2c(=O)c(C(=O)O)cn(C3CC3)c12 [Compound 13, 1-Cyclopropyl-7-(6,7-dihydro-4H-thieno[3,2-c]pyridin-5-yl)-6-fluoro-8-methoxy-4-oxo-1,4-dihydro-quinoline-3-carboxylic acid] |  |  |  | 
0.25 (≈ 0.599 µM) | 16 (≈ 38.3 µM) | 0.25 (≈ 0.599 µM) | ≤ 0.12 | 0.5 (≈ 1.2 µM) | ≤ 0.12 | ≤ 0.12 | ≤ 0.12 | ≤ 0.12 | ≤ 0.12 |  | Nc1c(F)c(N2CCc3sccc3C2)c(F)c2c1c(=O)c(C(=O)O)cn2C1CC1 [Compound 17, 5-Amino-1-cyclopropyl-7-(6,7-dihydro-4H-thieno[3,2-c]pyridin-5-yl)-6,8-difluoro-4-oxo-1,4-dihydro-quinoline-3-carboxylic acid] |  |  |  | 
 | 8 (≈ 18.1 µM) |  | ≤ 0.12 |  | ≤ 0.12 | ≤ 0.12 | 0.25 (≈ 0.565 µM) | 0.25 (≈ 0.565 µM) |  |  | COc1c(N2CCc3sc(C=O)cc3C2)c(F)cc2c(=O)c(C(=O)O)cn(C3CC3)c12 [Compound 20, 1-Cyclopropyl-6-fluoro-7-(2-formyl-6,7-dihydro-4H-thieno[3,2-c]pyridin-5-yl)-8-methoxy-4-oxo-1,4-dihydro-quinoline-3-carboxylic acid] |  |  |  | 
0.12 (≈ 0.32 µM) | 4 (≈ 10.7 µM) | 0.5 (≈ 1.33 µM) | 0.5 (≈ 1.33 µM) | 0.25 (≈ 0.666 µM) | ≤ 0.12 | ≤ 0.12 | 0.5 (≈ 1.33 µM) | ≤ 0.12 | ≤ 0.12 |  | COc1c(N2CCNC(C)C2)c(F)cc2c(=O)c(C(=O)O)cn(C3CC3)c12 (stereo not drawn) [Gatifloxacin, gatifloxacin, reference compound] |  |  |  | 
